Where two headings read alike, the source gives them in different places.
What was measured:
SIK1 [1] = target: T1, SIK1 (Homo sapiens, UniProt P57059); assay: biochemical; conditions: 33P radioactive SIK kinase assay, AMARA peptide, 10 μM ATP; read-out: SIK1 IC50
T1 construct: purchased Carna Biosciences 02-131
How it was run: (§1)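 Read-out: ^33P incorporated into AMARA peptide, counted on filter plates, taken as kinase activity. Reactions start on addition of labeled/unlabeled ATP to enzyme plus substrate and end with phosphoric acid. Controls: 1% DMSO (negative) and 10 μM staurosporine (positive), final.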

SIK2 [2] = target: T2, SIK2 (Homo sapiens, UniProt Q9H0K1); assay: biochemical; conditions: 33P radioactive SIK kinase assay, AMARA peptide, 10 μM ATP
T2 construct: purchased ThermoFisher Scientific PV4792
T2 sequence (Q9H0K1 whole entry): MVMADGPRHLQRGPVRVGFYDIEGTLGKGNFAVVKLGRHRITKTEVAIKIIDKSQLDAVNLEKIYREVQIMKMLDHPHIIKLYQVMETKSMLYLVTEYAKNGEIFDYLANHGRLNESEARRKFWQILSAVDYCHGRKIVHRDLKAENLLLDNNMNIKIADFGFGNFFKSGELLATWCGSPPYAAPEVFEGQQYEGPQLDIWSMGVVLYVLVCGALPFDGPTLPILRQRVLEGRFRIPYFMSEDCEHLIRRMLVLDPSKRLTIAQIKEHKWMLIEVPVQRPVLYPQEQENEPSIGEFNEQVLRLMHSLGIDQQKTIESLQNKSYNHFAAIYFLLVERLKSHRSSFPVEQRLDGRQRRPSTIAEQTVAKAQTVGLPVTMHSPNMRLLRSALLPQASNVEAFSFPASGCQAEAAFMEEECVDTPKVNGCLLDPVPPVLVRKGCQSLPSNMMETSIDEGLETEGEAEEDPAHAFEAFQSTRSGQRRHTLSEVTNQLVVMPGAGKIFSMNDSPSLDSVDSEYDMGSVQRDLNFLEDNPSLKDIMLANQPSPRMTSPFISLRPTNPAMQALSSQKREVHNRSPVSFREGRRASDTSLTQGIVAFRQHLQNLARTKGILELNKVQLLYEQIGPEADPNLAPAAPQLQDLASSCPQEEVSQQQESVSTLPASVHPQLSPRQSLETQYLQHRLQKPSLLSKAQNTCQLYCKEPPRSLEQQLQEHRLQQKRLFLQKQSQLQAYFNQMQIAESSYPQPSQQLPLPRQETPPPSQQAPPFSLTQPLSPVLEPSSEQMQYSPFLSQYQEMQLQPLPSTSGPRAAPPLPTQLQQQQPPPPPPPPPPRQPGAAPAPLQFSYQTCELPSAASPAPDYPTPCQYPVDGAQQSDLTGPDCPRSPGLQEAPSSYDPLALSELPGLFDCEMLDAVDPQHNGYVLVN
How it was run: as §1

SIK3 [3] = target: T3, SIK3 (Homo sapiens, UniProt Q9Y2K2); assay: biochemical
T3 construct: purchased SignalChem S12-11G-100
T3 sequence (Q9Y2K2 whole entry): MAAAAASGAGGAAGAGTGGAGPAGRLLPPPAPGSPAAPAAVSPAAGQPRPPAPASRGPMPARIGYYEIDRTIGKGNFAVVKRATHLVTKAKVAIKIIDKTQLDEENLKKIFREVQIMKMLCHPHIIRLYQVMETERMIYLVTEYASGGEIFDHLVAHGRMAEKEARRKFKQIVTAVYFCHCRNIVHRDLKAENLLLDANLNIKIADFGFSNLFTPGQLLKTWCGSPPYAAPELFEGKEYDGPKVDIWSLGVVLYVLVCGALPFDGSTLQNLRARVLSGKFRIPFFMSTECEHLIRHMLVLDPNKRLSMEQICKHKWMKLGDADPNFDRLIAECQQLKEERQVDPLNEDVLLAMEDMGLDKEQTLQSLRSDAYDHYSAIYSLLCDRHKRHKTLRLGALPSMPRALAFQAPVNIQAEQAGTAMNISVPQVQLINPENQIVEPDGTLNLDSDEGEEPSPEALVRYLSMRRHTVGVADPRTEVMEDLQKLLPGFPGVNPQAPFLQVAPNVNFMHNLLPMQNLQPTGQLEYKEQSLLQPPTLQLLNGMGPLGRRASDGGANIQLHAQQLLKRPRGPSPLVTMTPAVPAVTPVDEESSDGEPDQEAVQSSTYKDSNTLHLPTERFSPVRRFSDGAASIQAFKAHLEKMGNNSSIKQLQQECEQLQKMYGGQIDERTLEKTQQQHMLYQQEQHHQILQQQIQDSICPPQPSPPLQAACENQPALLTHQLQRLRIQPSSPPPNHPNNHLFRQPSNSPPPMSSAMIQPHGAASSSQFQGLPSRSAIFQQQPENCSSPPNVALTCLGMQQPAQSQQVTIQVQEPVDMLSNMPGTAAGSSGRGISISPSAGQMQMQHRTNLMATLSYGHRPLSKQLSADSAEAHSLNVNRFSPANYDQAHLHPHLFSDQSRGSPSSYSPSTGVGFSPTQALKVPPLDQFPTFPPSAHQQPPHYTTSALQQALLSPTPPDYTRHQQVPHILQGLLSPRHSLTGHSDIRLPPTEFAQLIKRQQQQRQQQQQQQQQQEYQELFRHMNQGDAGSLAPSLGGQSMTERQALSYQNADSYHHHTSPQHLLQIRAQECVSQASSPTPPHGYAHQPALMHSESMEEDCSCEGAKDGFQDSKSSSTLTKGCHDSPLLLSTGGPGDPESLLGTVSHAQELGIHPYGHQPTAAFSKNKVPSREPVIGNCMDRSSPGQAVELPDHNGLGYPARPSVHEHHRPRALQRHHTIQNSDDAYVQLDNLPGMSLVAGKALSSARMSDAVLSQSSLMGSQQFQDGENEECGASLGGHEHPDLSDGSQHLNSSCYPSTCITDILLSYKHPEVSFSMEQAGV
How it was run: as §1

SIK1 [4] = target: T1, SIK1; assay: biochemical; conditions: ADP-Glo SIK kinase assay
Procedure: (§2) The ADP-Glo™ kinase assay is a luminescent technology assay which measures the ADP formed from a kinase reaction. […] In a second step the kinase reactions are terminated and all the remaining ATP is depleted. In a final step the ADP is converted into ATP and this newly synthesized ATP is measured by using a luciferase/luciferin reaction. The generated light is measured using an Envision plate reader, wherein the luminescent signal obtained positively correlates with the kinase activity.
(§3) 1% DMSO and 10 μM staurosporine final concentrations are used as negative and positive controls.
(§4) 2 μL enzyme-substrate mixture is added to the assay plates.
(§5) The reaction is started by adding 2 μL diluted ATP on the assay plates. Plates are centrifuged for a few seconds at 1000 rpm and gently shaken for 2 min followed by an incubation at RT for 120 min.
(§6) The reactions are stopped and the unconsumed ATP is depleted by adding 5 μL ADP-Glo Reagent (Promega, Cat #V912B) to the reaction. The plates are centrifuged for a few seconds at 1000 rpm and incubated at RT for 40 min (ATP depletion).
(§7) The ADP is converted to ATP and luciferase and luciferin is introduced to detect ATP by adding 10 μL Kinase Detection Reagent (Promega, Cat #V913B+V914B) to the reaction. The plates are centrifuged for a few seconds at 1000 rpm and incubated at RT for 30 min (ADP detection).
(§8) Luminescence is measured on an Envision plate reader (PerkinElmer Inc.).

SIK2 [5] = target: T2, SIK2; assay: biochemical; conditions: ADP-Glo SIK kinase assay
Procedure: as §2, §3, §4, §5, §6, §7, §8

SIK3 [6] = target: T3, SIK3; assay: biochemical; conditions: ADP-Glo SIK kinase assay
Procedure: as §2, §3, §4, §5, §6, §7, §8

[7] = test system: LPS-induced TNFα secretion in monocyte-derived macrophages (MdM); assay: MdM assay: LPS-triggered TNFα (ELISA); type: cell-based, human; conditions: Homo sapiens, Macrophage, LPS-triggered TNFα inhibition
How it was run: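 Human CD14+ monocytes isolated from buffy-coat PBMCs by magnetic beads, differentiated to macrophages; on day 10 compound preincubated 1 h at 37 °C, then LPS 200 ng/mL added (0.2% DMSO). Supernatant taken after 20 h; TNFα quantified by sandwich ELISA against standard curve.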

T1 sequence (P57059 whole entry): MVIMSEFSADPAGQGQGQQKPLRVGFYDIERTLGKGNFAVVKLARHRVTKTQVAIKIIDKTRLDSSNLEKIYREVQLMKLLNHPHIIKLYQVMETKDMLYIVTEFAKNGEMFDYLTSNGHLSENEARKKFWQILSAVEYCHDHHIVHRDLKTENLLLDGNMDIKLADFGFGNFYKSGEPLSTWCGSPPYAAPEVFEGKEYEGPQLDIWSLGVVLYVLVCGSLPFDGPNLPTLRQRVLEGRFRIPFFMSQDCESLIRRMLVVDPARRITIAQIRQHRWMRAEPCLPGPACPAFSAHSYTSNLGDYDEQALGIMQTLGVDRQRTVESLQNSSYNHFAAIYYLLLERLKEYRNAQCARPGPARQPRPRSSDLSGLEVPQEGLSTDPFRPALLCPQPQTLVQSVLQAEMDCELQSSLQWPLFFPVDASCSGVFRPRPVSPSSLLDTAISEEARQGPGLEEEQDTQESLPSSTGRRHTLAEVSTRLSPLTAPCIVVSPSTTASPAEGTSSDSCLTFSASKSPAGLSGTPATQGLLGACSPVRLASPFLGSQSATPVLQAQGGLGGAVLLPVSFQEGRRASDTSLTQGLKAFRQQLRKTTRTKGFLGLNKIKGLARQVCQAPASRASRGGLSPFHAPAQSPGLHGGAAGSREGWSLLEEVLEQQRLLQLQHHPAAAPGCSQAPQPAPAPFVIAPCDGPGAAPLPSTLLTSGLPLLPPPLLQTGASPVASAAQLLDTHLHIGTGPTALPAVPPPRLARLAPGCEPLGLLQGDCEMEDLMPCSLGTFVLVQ

| Structure (SMILES) | IC50 (SIK1 [1]) [nM] | IC50 (SIK2 [2]) [nM] | IC50 (SIK3 [3]) [nM] | IC50 (SIK1 [4]) [nM] | IC50 (SIK2 [5]) [nM] | IC50 (SIK3 [6]) [nM] | EC50 [7] [nM] |
| --- | --- | --- | --- | --- | --- | --- | --- |
| COc1cc(-c2cnc3cc(-c4cnccc4C#N)ccn23)cc(OC)c1C(=O)NCC(F)(F)F [Cpd 258] | > 500 | > 500 | 100 to 500 | > 500 | > 500 | 10 to 100 |  |
| COc1cc(-c2cnc3cc(-c4cnn(CC(=O)OCC5CCCO5)c4)ccn23)cc(OC)c1C(=O)NCC(F)(F)F (stereo not drawn) [Cpd 297, tetrahydrofuran-2-ylmethyl 2-[4-[3-[3,5-dimethoxy-4-(2,2,2-trifluoro-ethylcarbamoyl)phenyl]imidazo[1,2-a]pyridin-7-yl]pyrazol-1-yl]acetate] |  |  |  | 0.01 to 10 | 0.01 to 10 | 0.01 to 10 | 100 to 1000 |
| CCN1Cc2cc(-n3cnc4cc(-c5cnn(C)c5)ccc43)cc(NCCO)c2C1=O [Cpd 202, 2-ethyl-7-(2-hydroxyethylamino)-5-[5-(1-methylpyrazol-4-yl)benzimidazol-1-yl]isoindolin-1-one] | 100 to 500 | 100 to 500 | > 500 | 100 to 500 | 100 to 500 | 100 to 500 |  |
| COc1cc(-c2cnc3cc(-c4cncn4C)ccn23)cc(OC(F)F)c1C(=O)NC1CC1 [compound 274, N-cyclopropyl-2-(difluoromethoxy)-6-methoxy-4-[7-(3-methylimidazol-4-yl)imidazo[1,2-a]pyridin-3-yl]benzamide] |  |  |  | 10 to 100 | 0.01 to 10 | 0.01 to 10 | 100 to 1000 |
| COc1cc(-n2cnc3cc(-c4cn[nH]c4)ccc32)cc(OC(F)F)c1C(=O)NC1CC1 [compound 306, N-cyclopropyl-2-(difluoromethoxy)-6-methoxy-4-[5-(1H-pyrazol-4-yl)benzimidazol-1-yl]benzamide] |  |  |  | 0.01 to 10 | 0.01 to 10 | 0.01 to 10 | 0.1 to 100 |
| COc1cc(-c2cnc3cc(-c4cnn(C)c4)ccn23)cc(OC)c1C(=O)N[C@H]1C[C@@H]1C(F)F [compound 172, N-[(1S,2S)-2-(difluoromethyl)cyclopropyl]-2,6-dimethoxy-4-[7-(1-methylpyrazol-4-yl)imidazo[1,2-a]pyridin-3-yl]benzamide] | 10 to 100 | 0.01 to 10 | 0.01 to 10 | 0.01 to 10 | 0.01 to 10 | 0.01 to 10 |  |
| COc1cc(-c2cnc3cc(-c4cnn(C5CN(C(=O)OC(C)(C)C)C5)c4)ccn23)cc(OC)c1C(=O)NCC(F)(F)F [compound 260, tert-butyl 3-[4-[3-[3,5-dimethoxy-4-(2,2,2-trifluoroethyl-carbamoyl)phenyl]imidazo[1,2-a]pyridin-7-yl]pyrazol-1-yl]azetidine-1-carboxylate] | 0.01 to 10 | 0.01 to 10 | 0.01 to 10 | 0.01 to 10 | 0.01 to 10 | 0.01 to 10 |  |
| CCOC(=O)C(C)(C)n1cc(-c2ccn3c(-c4cc(OC)c(C(=O)NCC(F)(F)F)c(OC)c4)cnc3c2)cn1 [Cpd 295, ethyl 2-[4-[3-[3,5-dimethoxy-4-(2,2,2-trifluoroethyl-carbamoyl)phenyl]imidazo[1,2-a]pyridin-7-yl]pyrazol-1-yl]-2-methyl-propanoate] |  |  |  | 0.01 to 10 | 0.01 to 10 | 0.01 to 10 | 0.1 to 100 |
| CCN1Cc2cc(-n3cnc4cc(-c5cnn(C)c5)ccc43)cc(F)c2C1=O [Cpd 175, 2-ethyl-7-fluoro-5-[5-(1-methylpyrazol-4-yl)benzimidazol-1-yl]isoindolin-1-one] | > 500 | 100 to 500 | 100 to 500 | > 500 | 100 to 500 | 100 to 500 |  |
| COc1cc(-c2cnc3cc(-c4ccc(C5CC5)nn4)ccn23)cc(OC(F)F)c1C(=O)NC1CC1 [compound 285, N-cyclopropyl-4-[7-(6-cyclopropyl-pyridazin-3-yl)imidazo[1,2-a]pyridin-3-yl]-2-(difluoromethoxy)-6-methoxy-benzamide] |  |  |  | 0.01 to 10 | 0.01 to 10 | 0.01 to 10 | 0.1 to 100 |
| COc1cc(-c2cnc3cc(-c4cnccc4C(N)=O)ccn23)cc(OC)c1C(=O)NCC(F)(F)F [Cpd 259, 3-[3-[3,5-dimethoxy-4-(2,2,2-trifluoroethyl-carbamoyl)phenyl]imidazo[1,2-a]pyridin-7-yl]pyridine-4-carboxamide] | > 500 | > 500 | 100 to 500 | > 500 | > 500 | 10 to 100 |  |
| COc1cc(-c2cnc3cc(-c4cnn(C)c4)ccn23)cc(F)c1C(=O)NC1CC1 [Cpd 276, N-cyclopropyl-2-fluoro-6-methoxy-4-[7-(1-methylpyrazol-4-yl)imidazo[1,2-a]pyridin-3-yl]benzamide] |  |  |  | 10 to 100 | 0.01 to 10 | 0.01 to 10 | 0.1 to 100 |
| COc1cc(-c2cnc3cc(-c4ccc(C)nn4)ccn23)cc(OC(F)F)c1C(=O)NC1CC1 [Cpd 273, N-cyclopropyl-2-(difluoromethoxy)-6-methoxy-4-[7-(6-methylpyridazin-3-yl)imidazo[1,2-a]pyridin-3-yl]benzamide] |  |  |  | 10 to 100 | 0.01 to 10 | 0.01 to 10 | 0.1 to 100 |
| CCOC(=O)C(Cn1cc(-c2ccn3c(-c4cc(OC)c(C(=O)NCC(F)(F)F)c(OC)c4)cnc3c2)cn1)C(C)C (stereo not drawn) [Cpd 294] |  |  |  | 0.01 to 10 | 0.01 to 10 | 0.01 to 10 | 0.1 to 100 |
| COc1cc(-c2cnc3cc(-c4cnn(C)c4)c(OCC(=O)O)cn23)cc(OC(F)F)c1C(=O)NC1CC1 [Cpd 299, 2-[3-[4-(cyclopropyl-carbamoyl)-3-(difluoromethoxy)-5-methoxy-phenyl]-7-(1-melhylpyrazol-4-yl)imidazo[1,2-a]pyridin-6-yl]oxyacetic acid] |  |  |  | 10 to 100 | 0.01 to 10 | 10 to 100 | > 5000 |
| CCOC(=O)COc1cn2c(-c3cc(OC)c(C(=O)NC4CC4)c(OC(F)F)c3)cnc2cc1-c1cnn(C)c1 [Cpd 298, ethyl 2-[3-[4-(cyclopropyl-carbamoyl)-3-(difluoromethoxy)-5-methoxy-phenyl]-7-(1-methylpvrazol-4-yl)imidazo[1,2-a]pyridin-6-yl]oxyacetate] |  |  |  | 0.01 to 10 | 0.01 to 10 | 0.01 to 10 | 1000 to 5000 |
| CCOC(=O)C(C(C)C)n1cc(-c2ccn3c(-c4cc(OC)c(C(=O)NCC(F)(F)F)c(OC)c4)cnc3c2)cn1 (stereo not drawn) [Cpd 296, ethyl 2-[4-(3-[3,5-dimethoxy-4-(2,2,2-trifluoro-ethylcarbamoyl)phenyl]imidazo[1,2-a]pyridin-7-yl]pyrazol-1-yl]-3-methyl-butanoate] |  |  |  | 0.01 to 10 | 0.01 to 10 | 0.01 to 10 | 0.1 to 100 |
| COc1cc(-c2cnc3cc(-c4cn[nH]c4)ccn23)cc(OC(F)F)c1C(=O)NC1CC1 [compound 307, N-cyclopropyl-2-(difluoromethoxy)-6-methoxy-4-[7-(1H-pyrazol-4-yl)imidazo[1,2-a]pyridin-3-yl]benzamide] |  |  |  | 0.01 to 10 | 0.01 to 10 | 0.01 to 10 | 0.1 to 100 |
| CCN1Cc2cc(-c3cnc4cc(-c5cnn(C)c5)ccn34)cc(NCCO)c2C1=O [compound 201, 2-ethyl-7-(2-hydroxyethylainino)-5-[7-(1-methylpyrazol-4-yl)imidazo[1,2-a]pyridin-3-yl]isoindolin-1-one] | > 500 | 10 to 100 | 100 to 500 | 100 to 500 | 10 to 100 | 10 to 100 |  |

Reference: patent publication US12065443B2, “Compounds and pharmaceutical compositions thereof for the treatment of diseases” (priority 2017, dated 2024)
